The text below walks through data of ChEMBL document CHEMBL2401737 (J Med Chem, 2013).

≈ marks a conversion by molar mass, not a printed value.

Data set [1] can be described thus: Half life in human hepatocytes. Format: ADME, cell-based, Hepatocyte.
Data set [2] in a line: Half life in rat hepatocytes. Format: ADME, cell-based, Hepatocyte.
Data set [3] is described as follows: Half life in monkey S9 fraction. Format: ADME, Macaca mulatta. The settings on record: rhesus monkey.
Data set [4] can be described thus: Half life in human S9 fraction. In kind it is ADME.
Data set [5] in a line: Half life in rat S9 fraction. Format: ADME.
Data set [6] in a line: Half life in dog S9 fraction. In kind it is ADME, Canis lupus familiaris.
Data set [7] in a line: Solubility of the compound in simulated gastrointestinal fluid. Format: physicochemical.
Data set [8] is described as follows: Lipophilicity, log D of the compound at pH 7.4 by chromatographic analysis. Format: physicochemical. Particulars: buffer.
Data set [9] is described as follows: Ratio of plasma concentration in rat to IC90 for pseudo Human immunodeficiency virus. In kind it is ADME, cell-free.
Data set [10] in a line: Apparent permeability in MDCK cells. Format: ADME, cell-based, Canis lupus familiaris. Particulars: dog.
Data set [11] can be described thus: Plasma concentration in rat at 5 mg/kg, po after 24 hrs. Format: ADME, organism-based. Details: dose 5 mg/kg, route oral.
Data set [12] is described as follows: Oral bioavailability in cynomolgus monkey at 5 mg/kg administered as capsule by LC-MS/MS analysis. Format: ADME, organism-based, Macaca fascicularis. The settings on record: in vivo.
Data set [13] is described as follows: Oral bioavailability in Beagle dog at 5 mg/kg administered as capsule by LC-MS/MS analysis. In kind it is ADME, organism-based, Canis lupus familiaris. The settings on record: in vivo.
Data set [14] in a line: Volume of distribution at steady state in cynomolgus monkey at 1 mg/kg, iv and 5 mg/kg, po administered as capsule by LC-MS/MS analysis. In kind it is ADME, organism-based, Macaca fascicularis. The settings on record: in vivo, read-out: Vdss.
Data set [15] is described as follows: Volume of distribution at steady state in Beagle dog at 1 mg/kg, iv and 5 mg/kg, po administered as capsule by LC-MS/MS analysis. Format: ADME, organism-based, Canis lupus familiaris. The settings on record: in vivo, read-out: Vdss.
Data set [16] in a line: Half life in cynomolgus monkey at 1 mg/kg, iv and 5 mg/kg, po administered as capsule by LC-MS/MS analysis. The settings on record: in vivo. Format: ADME, organism-based, Macaca fascicularis.
A short description of data set [17]: Half life in Beagle dog at 1 mg/kg, iv and 5 mg/kg, po administered as capsule by LC-MS/MS analysis. Format: ADME, organism-based, Canis lupus familiaris. The settings on record: in vivo.
Data set [18] is described as follows: Half life in Sprague-Dawley rat at 1 mg/kg, iv and 5 mg/kg, po administered as capsule by LC-MS/MS analysis. Format: ADME, organism-based. The settings on record: in vivo.
Data set [19] is described as follows: Clearance in Beagle dog at 1 mg/kg, iv and 5 mg/kg, po administered as capsule by LC-MS/MS analysis. The settings on record: in vivo. Format: ADME, organism-based, Canis lupus familiaris.
The nature of data set [20]: Clearance in cynomolgus monkey at 1 mg/kg, iv and 5 mg/kg, po administered as capsule by LC-MS/MS analysis. In kind it is ADME, organism-based, Macaca fascicularis. Particulars: in vivo.
Data set [21] in a line: Fraction unbound in cynomolgus monkey plasma at 1 mg/kg, iv and 5 mg/kg, po administered as capsule by equilibrium dialysis technique. In kind it is ADME, organism-based, Macaca fascicularis. (In general: In equilibrium dialysis only unbound substance equilibrates across the membrane.)
Data set [22] is described as follows: Fraction unbound in Beagle dog plasma at 1 mg/kg, iv and 5 mg/kg, po administered as capsule by equilibrium dialysis technique. Format: ADME, organism-based, Canis lupus familiaris.
A short description of data set [23]: Fraction unbound in Sprague-Dawley rat plasma at 1 mg/kg, iv and 5 mg/kg, po administered as capsule by equilibrium dialysis technique. Format: ADME, organism-based.
Data set [24] in a line: Fraction unbound in human plasma. Format: ADME, cell-free.
Data set [25] has as its system Human immunodeficiency virus 1. The data set is described as follows: Antiviral activity against Human immunodeficiency virus 1 3B infected in human MT4 cells after 4 to 5 days by bioluminescence assay in presence of human serum relative to control. Format: functional.
Data set [26] concerns Human immunodeficiency virus 1. The data set is described as follows: Antiviral activity against Human immunodeficiency virus 1 3B infected in human MT4 cells after 4 to 5 days by bioluminescence assay. Format: functional, organism-based.
Data set [27] has as its system Human immunodeficiency virus 1. The data set is described as follows: Antiviral activity against Human immunodeficiency virus 1 Ba-L infected human PBMC after 7 days by [methyl-3H]dTTP incorporation assay. Format: functional, organism-based. Particulars: 168 h.
Data set [28] concerns the target Human immunodeficiency virus type 1 integrase (Human immunodeficiency virus 1, UniProt Q7ZJM1). Put plainly: Inhibition of HIV-1 integrase strand transfer activity using [3H]-DNA as substrate preincubated for 60 mins prior to substrate addition measured after 25 to 45 mins.
Data set [29] has as its system Human immunodeficiency virus. Put plainly: Ratio of IC50 for pseudo Human immunodeficiency virus to IC50 for pseudo Human immunodeficiency virus in presence of human serum albumin. In kind it is functional.
The subject of data set [30] is Human immunodeficiency virus. The data set is described as follows: Antiviral activity against Human immunodeficiency virus harboring integrase Q148K mutant infected in human HeLa cells expressing CD4 after 2 days by beta galactosidase assay relative to wild type HIV. Format: functional.
Data set [31] relates to Human immunodeficiency virus. Put plainly: Antiviral activity against pseudo Human immunodeficiency virus infected in HEK293T cells after 2 days in presence of human serum albumin. In kind it is functional, organism-based. Particulars: Human immunodeficiency virus 1, HEK-293T, 48 h.
The test system of data set [32] is Human immunodeficiency virus. Put plainly: Antiviral activity against pseudo Human immunodeficiency virus infected in HEK293T cells after 2 days. Format: functional, organism-based. The settings on record: Human immunodeficiency virus 1, HEK-293T, 48 h.
A short description of data set [33]: Oral bioavailability in cynomolgus monkey at 5 mg/kg administered as suspension by LC-MS/MS analysis. Format: ADME, organism-based, Macaca fascicularis. Particulars: in vivo.
The nature of data set [34]: Oral bioavailability in Beagle dog at 5 mg/kg administered as suspension by LC-MS/MS analysis. Format: ADME, organism-based, Canis lupus familiaris. Particulars: in vivo.
A short description of data set [35]: Oral bioavailability in Sprague-Dawley rat at 5 mg/kg administered as suspension by LC-MS/MS analysis. Format: ADME, organism-based. Particulars: in vivo.
Data set [36] is described as follows: Volume of distribution at steady state in cynomolgus monkey at 1 mg/kg, iv and 5 mg/kg, po administered as suspension by LC-MS/MS analysis. In kind it is ADME, organism-based, Macaca fascicularis. Particulars: in vivo, read-out: Vdss.
Data set [37] is described as follows: Volume of distribution at steady state in Beagle dog at 1 mg/kg, iv and 5 mg/kg, po administered as suspension by LC-MS/MS analysis. Format: ADME, organism-based, Canis lupus familiaris. The settings on record: in vivo, read-out: Vdss.
Data set [38] can be described thus: Volume of distribution at steady state in Sprague-Dawley rat at 1 mg/kg, iv and 5 mg/kg, po administered as suspension by LC-MS/MS analysis. In kind it is ADME, organism-based. Particulars: in vivo, read-out: Vdss.
Data set [39] in a line: Half life in Beagle dog at 1 mg/kg, iv and 5 mg/kg, po administered as suspension by LC-MS/MS analysis. The settings on record: in vivo. Format: ADME, organism-based, Canis lupus familiaris.
Data set [40] can be described thus: Half life in cynomolgus monkey at 1 mg/kg, iv and 5 mg/kg, po administered as suspension by LC-MS/MS analysis. Format: ADME, organism-based, Macaca fascicularis. The settings on record: in vivo.
The nature of data set [41]: Half life in Sprague-Dawley rat at 1 mg/kg, iv and 5 mg/kg, po administered as suspension by LC-MS/MS analysis. The settings on record: in vivo. Format: ADME, organism-based.
Data set [42] in a line: Clearance in Beagle dog at 1 mg/kg, iv and 5 mg/kg, po administered as suspension by LC-MS/MS analysis. Format: ADME, organism-based, Canis lupus familiaris. The settings on record: in vivo.
Data set [43] is described as follows: Clearance in cynomolgus monkey at 1 mg/kg, iv and 5 mg/kg, po administered as suspension by LC-MS/MS analysis. In kind it is ADME, organism-based, Macaca fascicularis. The settings on record: in vivo.
Data set [44] is described as follows: Clearance in Sprague-Dawley rat at 1 mg/kg, iv and 5 mg/kg, po administered as suspension by LC-MS/MS analysis. In kind it is ADME, organism-based. The settings on record: in vivo.
Data set [45] is described as follows: Fraction unbound in cynomolgus monkey plasma at 1 mg/kg, iv and 5 mg/kg, po administered as suspension by equilibrium dialysis technique. In kind it is ADME, organism-based, Macaca fascicularis.
Data set [46] in a line: Fraction unbound in Beagle dog plasma at 1 mg/kg, iv and 5 mg/kg, po administered as suspension by equilibrium dialysis technique. Format: ADME, organism-based, Canis lupus familiaris.
Data set [47] can be described thus: Fraction unbound in Sprague-Dawley rat plasma at 1 mg/kg, iv and 5 mg/kg, po administered as suspension by equilibrium dialysis technique. Format: ADME, organism-based.

By half-life is commonly meant the time needed for the level to fall by half in the phase considered. In general, solubility refers to the dissolved amount per volume that the medium holds. As usually defined, the chromatographic logD is lipophilicity estimated from chromatographic retention. The Papp is the rate of passage across a membrane or cell layer, normalised by area and donor concentration. In general, bioavailability refers to the share of a dose that reaches the circulation, judged against a reference dose that is usually intravenous. One may read the fraction unbound as free concentration divided by total concentration. One may read the IC50 as the concentration that inhibits the measured activity by half. As usually defined, the IC90 is the concentration at which the effect reaches the 90% level.

Chain of Human immunodeficiency virus type 1 integrase (Q7ZJM1 whole entry): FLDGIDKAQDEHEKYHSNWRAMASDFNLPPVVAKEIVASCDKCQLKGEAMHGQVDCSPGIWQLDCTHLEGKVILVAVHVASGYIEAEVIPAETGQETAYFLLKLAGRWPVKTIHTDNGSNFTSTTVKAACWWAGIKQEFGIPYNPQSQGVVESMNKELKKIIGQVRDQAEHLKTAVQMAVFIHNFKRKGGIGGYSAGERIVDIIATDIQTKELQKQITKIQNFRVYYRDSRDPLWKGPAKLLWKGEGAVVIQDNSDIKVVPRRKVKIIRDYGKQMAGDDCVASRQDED

Regarding `C[C@H]1CO[C@@H]2Cn3cc(C(=O)NCc4ccc(F)cc4F)c(=O)c(O)c3C(=O)N12` [CABOTEGRAVIR], the half-life in data set [1] was above 3.67 h; in data set [2], above 3.67 h; in data set [3] it was above 3 h; in [4] it was above 3 h; in data set [5], above 3 h; in data set [6], above 3 h. The half-life in data set [16] was 4 h; in data set [17], 5.7 h; in data set [18] it was above 18 h. This compound also registered a solubility in [7] of 42 µg/mL (≈ 104 µM). The compound further returned a chromatographic logD in [8] of 3.49. For the same compound, in [9], the Ratio amounted to 0.9. The Papp in [10] stood at 42.5 ×10⁻⁶ cm/s. Besides, the concentration at 24 h in data set [11] came to 9590 ng/mL. The figures for the bioavailability in data set [12] and in [13] were 6.2% and 8%, respectively. Also, the Vd in [14] is 0.09 L/kg; in [15] it was 0.14 L/kg. Further, the figures for the clearance in [19] and in data set [20] were 0.34 mL/min/kg and 0.32 mL/min/kg, respectively. The free fraction (fraction unbound) is 0.003 in [21], 0.007 in data set [22], below 0.001 in data set [23] and 0.004 in data set [24]. For the same compound, the “fold change (FC)” value is listed as 408 in data set [25] and 3.9 in [30]. In addition, the half-maximal inhibitory concentration (IC50) was 1.3 nM in [26]; 0.2 nM in [27]; 3 nM in data set [28]; 30 nM in [31]; 0.5 nM in [32]. The “Ratio IC50” value in data set [29] was 60. Moreover, in [31], the IC90 was determined as 0.0491 µg/mL.
For the compound `C[C@@H]1CCO[C@H]2Cn3cc(C(=O)NCc4ccc(F)cc4F)c(=O)c(O)c3C(=O)N12` [DOLUTEGRAVIR], the “fold change (FC)” value in [25] was determined as 75; in [30], 0.4. The half-inhibitory concentration (IC50) came to 2 nM in data set [26], 0.5 nM in [27], 22 nM in [31] and 1.7 nM in data set [32]. Besides, the IC90 in data set [31] is 0.0374 µg/mL.
Consider `C[C@@H]1CCO[C@H]2Cn3cc(C(=O)NCc4ccc(F)cc4F)c(=O)c([O-])c3C(=O)N12.[Na+]` [DOLUTEGRAVIR SODIUM], for which the half-life in data set [1] was above 3.67 h; in data set [2], above 3.67 h; in [3], above 3 h; in data set [4], above 3 h; in data set [5] it was above 3 h; in [6] it was above 3 h. Besides, the half-life was 5.2 h in [39], 6 h in [40] and 6.2 h in data set [41]. Further, in [7], the solubility is 130 µg/mL. In addition, in [8], the chromatographic logD came out at 3.67. In [10], the Papp worked out at 58.5 ×10⁻⁶ cm/s. The compound further came in with a concentration at 24 h in data set [11] of 908 ng/mL. Further, the bioavailability stood at 25% in data set [33], 35% in data set [34] and 34% in [35]. Also, the results for the Vd in data set [36], in [37] and in [38] were 0.3 L/kg, 0.3 L/kg and 0.1 L/kg, respectively. Moreover, the clearance in [42] stood at 2.2 mL/min/kg; in data set [43] it was 2.1 mL/min/kg; in data set [44] it was 0.23 mL/min/kg. The free fraction (fraction unbound) in [24] worked out at 0.007; in data set [45], 0.009; in data set [46], 0.046; in data set [47], 0.001.
`C[C@@H]1CCN2C(=O)c3c(O)c(=O)c(C(=O)NCc4ccc(F)cc4)cn3C[C@@H]2O1`: the IC50 stood at 5 nM in data set [28], 25 nM in [31] and 2.1 nM in data set [32]. Besides, the “Ratio IC50” value in [29] was 12.
